# Source: patent publication US20210161855A1, “5-LIPOXYGENASE ANTAGONISTS” (INSTITUTO DE MEDICINA MOLECULAR JOÃO LOBO ANTUNES, priority 2017, published 2021)
# pIC50: −log10 of the molar value.
# Assays:
# 12-LO = biological target: T1, 12-LO (Homo sapiens, UniProt P18054); assay: 12-LO inhibition in intact human neutrophils; type: cell-based; conditions: without DTT
# T1 construct: endogenous in cells; host or cells: human blood neutrophil preparation
# T1 sequence (P18054 1-663): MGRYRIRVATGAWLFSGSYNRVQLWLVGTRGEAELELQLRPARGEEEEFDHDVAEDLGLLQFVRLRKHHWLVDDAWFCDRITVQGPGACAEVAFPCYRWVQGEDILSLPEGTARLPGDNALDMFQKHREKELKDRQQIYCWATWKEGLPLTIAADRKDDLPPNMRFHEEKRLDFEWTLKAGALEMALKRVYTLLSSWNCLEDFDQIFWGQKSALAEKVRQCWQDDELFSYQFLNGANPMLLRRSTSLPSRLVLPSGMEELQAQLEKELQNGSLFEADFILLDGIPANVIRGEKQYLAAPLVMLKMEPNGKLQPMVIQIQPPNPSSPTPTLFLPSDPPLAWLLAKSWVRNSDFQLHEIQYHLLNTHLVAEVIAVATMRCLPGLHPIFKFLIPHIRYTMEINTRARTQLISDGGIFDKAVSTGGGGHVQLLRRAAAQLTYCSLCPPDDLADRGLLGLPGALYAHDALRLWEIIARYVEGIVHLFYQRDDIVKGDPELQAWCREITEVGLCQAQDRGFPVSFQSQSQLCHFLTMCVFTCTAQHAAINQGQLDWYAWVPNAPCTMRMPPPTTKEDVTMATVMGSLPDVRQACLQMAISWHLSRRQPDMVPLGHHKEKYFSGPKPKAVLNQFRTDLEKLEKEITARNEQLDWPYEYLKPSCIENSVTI
# Experimental: Peripheral blood (University Hospital Jena, Germany) was withdrawn from healthy adult volunteers with consent that had not taken any anti-inflammatory drugs during the last 10 days, by venipuncture in heparinized tubes (16 IE heparin/mL blood). The blood was centrifuged at 4000 g for 20 min at 20° C. for preparation of leukocyte concentrates. Leukocyte concentrates were then subjected to dextran sedimentation and centrifugation on lymphocyte separation medium (LSM 1077, PAA, Colbe, Germany). Contaminating erythrocytes of pelleted neutrophils were removed by hypotonic Iysis. […] Method B. […] Cysteinyl-LTs C4, D4 and E4 were not detected (amounts were below detection limit), and oxidation products of LTB4 were not determined.
# [1] = tested on: Staphylococcus aureus ATCC 25923; assay: MIC/MBC assay, S. aureus; type: cell-based
# Experimental: Escherichia coli K12 and Staphylococcus aureus ATCC 25923 were grown overnight at 37° C. and re-inoculated in 24-well plates containing 2.5 mL of Luria Bertani medium (LB) to give an optical density of ˜0.01 at 600 nm. Stock solutions of β-lapachone, and lapachol were prepared in DMSO (1% final concentration) and added to the cell suspensions to obtain final concentrations between 5-210 μM. Wells containing a growth control (cell suspensions with 1% DMSO) and a sterile media control were also prepared. The plates were incubated for 18 h at 37° C. and 90 r.p.m. The concentration of compound in the first well in the series that presented no sign of visible growth was reported as the MIC. The OD600 of the cultures was also measured. All the MIC wells were serially diluted in phosphate buffer saline (PBS) and plated onto LB agar plates.
# 12-lipoxygenase (12-LO) = biological target: T2, 12-lipoxygenase (12-LO) (Homo sapiens, UniProt P18054); assay: 12-LO inhibition assay, Method A (Cerep); type: biochemical
# T2 sequence (P18054 1-663): T1 sequence (P18054 1-663)
# Experimental: Method A: 5-Lipoxygenase (5-LO), 12-lipoxygenase (12-LO) and 15-lipoxygenase-2 (15-LO-2) inhibition assays were performed at Cerep, SA (Celle l'Evescault, France) on a fee-for-service basis (Ref 0772^36, 0883^37 and 0893^38, respectively), as described in Table 1.
smiles,measurement,setting,value
"CC1(C)CCC2=C(O1)c1ccccc1C(=O)C2=O [Compound 1, 3,4-dihydro-2,2-dimethyl-2H-naphtho[1,2-b]pyran-5,6-dione]",pIC50,12-LO,< 4.52
same,MIC,"[1]; ATCC25923, 18 h, read-out: Minimum inhibitory concentration",60 µM
same,MBC,"[1]; ATCC25923, read-out: Minimum bactericidal concentration",> 200 µM
same,inhibition at 5 µM,12-lipoxygenase (12-LO),38%
